Data taken from patent US20260130395A1, “Water Dispersible Botanical Compositions” (Aquila Black Limited, priority 2021, published 2026).

Experiment: Stability of cannabinoid compounds and Vitamin E components in Beverage 2 (AB Red) by LCMSMS
Assay type: physicochemical

SMILES: CCCCCc1cc2c(c(O)c1C(=O)O)[C@@H]1C=C(C)CC[C@H]1C(C)(C)O2 [D9 THCA, delta-9-tetrahydrocannabinolic acid]
- Stability of Plant-Derived Cannabinoid Compounds in AB Red (stored at 8° C., 0 days): 1.35 µg/mL
- Stability of Plant-Derived Cannabinoid Compounds in AB Red (stored at 8° C., 1 days): 1.34 µg/mL
- Stability of Plant-Derived Cannabinoid Compounds in AB Red (stored at 8° C., 2 days): 1.34 µg/mL
- Stability of Plant-Derived Cannabinoid Compounds in AB Red (stored at 8° C., 3 days): 1.35 µg/mL
- Stability of Plant-Derived Cannabinoid Compounds in AB Red (stored at 8° C., 5 days): 1.36 µg/mL
- Stability of Plant-Derived Cannabinoid Compounds in AB Red (stored at 8° C., 8 days): 1.35 µg/mL
- Stability of Plant-Derived Cannabinoid Compounds in AB Red (stored at 8° C., 9 days): 1.36 µg/mL
- Stability of Plant-Derived Cannabinoid Compounds in AB Red (stored at 8° C., 10 days): 1.35 µg/mL
- Stability of Plant-Derived Cannabinoid Compounds in AB Red (stored at 8° C., 11 days): 1.35 µg/mL
- Stability of Plant-Derived Cannabinoid Compounds in AB Red (stored at 8° C., 12 days): 1.32 µg/mL
- Stability of Plant-Derived Cannabinoid Compounds in AB Red (stored at 8° C., 15 days): 1.33 µg/mL
- Stability of Plant-Derived Cannabinoid Compounds in AB Red (stored at 8° C., 16 days): 1.31 µg/mL
- Stability of Plant-Derived Cannabinoid Compounds in AB Red (stored at 8° C., 17 days): 1.34 µg/mL
- Stability of Plant-Derived Cannabinoid Compounds in AB Red (stored at 8° C., 18 days): 1.35 µg/mL
- Stability of Plant-Derived Cannabinoid Compounds in AB Red (stored at 8° C., 19 days): 1.32 µg/mL
- Stability of Plant-Derived Cannabinoid Compounds in AB Red (stored at 8° C., 22 days): 1.34 µg/mL
- Stability of Plant-Derived Cannabinoid Compounds in AB Red (stored at 8° C., 23 days): 1.33 µg/mL
- Stability of Plant-Derived Cannabinoid Compounds in AB Red (stored at 8° C., 24 days): 1.33 µg/mL
- Stability of Plant-Derived Cannabinoid Compounds in AB Red (stored at 8° C., 25 days): 1.34 µg/mL
- Stability of Plant-Derived Cannabinoid Compounds in AB Red (stored at 8° C., 26 days): 1.33 µg/mL
- Stability of Plant-Derived Cannabinoid Compounds in AB Red (stored at 8° C., 29 days): 1.35 µg/mL
- Stability of Plant-Derived Cannabinoid Compounds in AB Red (stored at 8° C., 30 days): 1.31 µg/mL
- Stability of Plant-Derived Cannabinoid Compounds in AB Red (stored at 8° C., 60 days): 1.32 µg/mL
- Stability of Plant-Derived Cannabinoid Compounds in AB Red (stored at 8° C., 90 days): 1.34 µg/mL
- Stability of Plant-Derived Cannabinoid Compounds in AB Red (stored at 8° C., 120 days): 1.30 µg/mL
- Stability of Plant-Derived Cannabinoid Compounds in AB Red (stored at 8° C., 150 days): 1.34 µg/mL
- Stability of Plant-Derived Cannabinoid Compounds in AB Red (stored at 8° C., 180 days): 1.30 µg/mL
- Stability of Plant-Derived Cannabinoid Compounds in AB Red (stored at 8° C., 210 days): 1.33 µg/mL
- Stability of Plant-Derived Cannabinoid Compounds in AB Red (stored at 8° C., 240 days): 1.32 µg/mL
- Stability of Plant-Derived Cannabinoid Compounds in AB Red (stored at 8° C., 270 days): 1.33 µg/mL
- Stability of Plant-Derived Cannabinoid Compounds in AB Red (stored at 8° C., 300 days): 1.30 µg/mL
- Stability of Plant-Derived Cannabinoid Compounds in AB Red (stored at 8° C., 330 days): 1.34 µg/mL
- Stability of Plant-Derived Cannabinoid Compounds in AB Red (stored at 8° C., 360 days): 1.31 µg/mL
- Stability of Plant-Derived Cannabinoid Compounds in AB Red (stored at 8° C., 390 days): 1.29 µg/mL
- Stability of Plant-Derived Cannabinoid Compounds in AB Red (stored at 8° C., 420 days): 1.29 µg/mL
- Stability of Plant-Derived Cannabinoid Compounds in AB Red (stored at 8° C., 450 days): 1.31 µg/mL
- Stability of Plant-Derived Cannabinoid Compounds in AB Red (stored at 8° C., 480 days): 1.28 µg/mL
- Stability of Plant-Derived Cannabinoid Compounds in AB Red (stored at 8° C., 510 days): 1.25 µg/mL
- Stability of Plant-Derived Cannabinoid Compounds in AB Red (stored at 8° C., 540 days): 1.26 µg/mL
- Stability of Plant-Derived Cannabinoid Compounds in AB Red (stored at 8° C., 570 days): 1.24 µg/mL
- Stability of Plant-Derived Cannabinoid Compounds in AB Red (stored at 21-25° C., 0 days): 1.35 µg/mL
- Stability of Plant-Derived Cannabinoid Compounds in AB Red (stored at 21-25° C., 1 days): 1.34 µg/mL
- Stability of Plant-Derived Cannabinoid Compounds in AB Red (stored at 21-25° C., 2 days): 1.30 µg/mL
- Stability of Plant-Derived Cannabinoid Compounds in AB Red (stored at 21-25° C., 3 days): 1.32 µg/mL
- Stability of Plant-Derived Cannabinoid Compounds in AB Red (stored at 21-25° C., 5 days): 1.36 µg/mL
- Stability of Plant-Derived Cannabinoid Compounds in AB Red (stored at 21-25° C., 8 days): 1.36 µg/mL
- Stability of Plant-Derived Cannabinoid Compounds in AB Red (stored at 21-25° C., 9 days): 1.35 µg/mL
- Stability of Plant-Derived Cannabinoid Compounds in AB Red (stored at 21-25° C., 10 days): 1.33 µg/mL
- Stability of Plant-Derived Cannabinoid Compounds in AB Red (stored at 21-25° C., 11 days): 1.33 µg/mL
- Stability of Plant-Derived Cannabinoid Compounds in AB Red (stored at 21-25° C., 12 days): 1.33 µg/mL
- Stability of Plant-Derived Cannabinoid Compounds in AB Red (stored at 21-25° C., 15 days): 1.30 µg/mL
- Stability of Plant-Derived Cannabinoid Compounds in AB Red (stored at 21-25° C., 16 days): 1.36 µg/mL
- Stability of Plant-Derived Cannabinoid Compounds in AB Red (stored at 21-25° C., 17 days): 1.35 µg/mL
- Stability of Plant-Derived Cannabinoid Compounds in AB Red (stored at 21-25° C., 18 days): 1.36 µg/mL
- Stability of Plant-Derived Cannabinoid Compounds in AB Red (stored at 21-25° C., 19 days): 1.31 µg/mL
- Stability of Plant-Derived Cannabinoid Compounds in AB Red (stored at 21-25° C., 22 days): 1.34 µg/mL
- Stability of Plant-Derived Cannabinoid Compounds in AB Red (stored at 21-25° C., 23 days): 1.36 µg/mL
- Stability of Plant-Derived Cannabinoid Compounds in AB Red (stored at 21-25° C., 24 days): 1.30 µg/mL
- Stability of Plant-Derived Cannabinoid Compounds in AB Red (stored at 21-25° C., 25 days): 1.35 µg/mL
- Stability of Plant-Derived Cannabinoid Compounds in AB Red (stored at 21-25° C., 26 days): 1.32 µg/mL
- Stability of Plant-Derived Cannabinoid Compounds in AB Red (stored at 21-25° C., 29 days): 1.33 µg/mL
- Stability of Plant-Derived Cannabinoid Compounds in AB Red (stored at 21-25° C., 30 days): 1.34 µg/mL
- Stability of Plant-Derived Cannabinoid Compounds in AB Red (stored at 21-25° C., 60 days): 1.28 µg/mL
- Stability of Plant-Derived Cannabinoid Compounds in AB Red (stored at 21-25° C., 90 days): 1.34 µg/mL
- Stability of Plant-Derived Cannabinoid Compounds in AB Red (stored at 21-25° C., 120 days): 1.34 µg/mL
- Stability of Plant-Derived Cannabinoid Compounds in AB Red (stored at 21-25° C., 150 days): 1.28 µg/mL
- Stability of Plant-Derived Cannabinoid Compounds in AB Red (stored at 21-25° C., 180 days): 1.30 µg/mL
- Stability of Plant-Derived Cannabinoid Compounds in AB Red (stored at 21-25° C., 210 days): 1.33 µg/mL
- Stability of Plant-Derived Cannabinoid Compounds in AB Red (stored at 21-25° C., 240 days): 1.31 µg/mL
- Stability of Plant-Derived Cannabinoid Compounds in AB Red (stored at 21-25° C., 270 days): 1.27 µg/mL
- Stability of Plant-Derived Cannabinoid Compounds in AB Red (stored at 21-25° C., 300 days): 1.27 µg/mL
- Stability of Plant-Derived Cannabinoid Compounds in AB Red (stored at 21-25° C., 330 days): 1.28 µg/mL
- Stability of Plant-Derived Cannabinoid Compounds in AB Red (stored at 21-25° C., 360 days): 1.29 µg/mL
- Stability of Plant-Derived Cannabinoid Compounds in AB Red (stored at 21-25° C., 390 days): 1.26 µg/mL
- Stability of Plant-Derived Cannabinoid Compounds in AB Red (stored at 21-25° C., 420 days): 1.26 µg/mL
- Stability of Plant-Derived Cannabinoid Compounds in AB Red (stored at 21-25° C., 450 days): 1.31 µg/mL
- Stability of Plant-Derived Cannabinoid Compounds in AB Red (stored at 21-25° C., 480 days): 1.29 µg/mL
- Stability of Plant-Derived Cannabinoid Compounds in AB Red (stored at 21-25° C., 510 days): 1.27 µg/mL
- Stability of Plant-Derived Cannabinoid Compounds in AB Red (stored at 21-25° C., 540 days): 1.29 µg/mL
- Stability of Plant-Derived Cannabinoid Compounds in AB Red (stored at 21-25° C., 570 days): 1.24 µg/mL
